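Briefly, cells in 96-well plates were exposed to five compound concentrations for 48 h, and endpoints were estimated by linear interpolation. TGI marks complete inhibition of growth.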
Columns and labels:
Test in all cases: inhibition of tumour cell growth, NCI panel, 48 h
SF-539 CNS = system: SF-539 CNS
MALME-3M melanoma = system: MALME-3M melanoma
CAKI-1 renal = system: CAKI-1 renal
UACC-257 melanoma = system: UACC-257 melanoma
A498 renal = system: A498 renal
EKVX NSCLC = system: EKVX NSCLC
MOLT-4 leukemia = system: MOLT-4 leukemia
K-562 leukemia = system: K-562 leukemia
SK-OV-3 ovarian = system: SK-OV-3 ovarian
DLD-1 colon = system: DLD-1 colon
IGROV1 ovarian = system: IGROV1 ovarian
KM20L2 colon = system: KM20L2 colon
OVCAR-5 ovarian = system: OVCAR-5 ovarian
SK-MEL-28 melanoma = system: SK-MEL-28 melanoma
SK-MEL-2 melanoma = system: SK-MEL-2 melanoma
SN12C renal = system: SN12C renal
DMS 114 small cell lung = system: DMS 114 small cell lung
LXFL 529 NSCLC = system: LXFL 529 NSCLC
786-0 renal = system: 786-0 renal
HL-60(TB) leukemia = system: HL-60(TB) leukemia
KM12 colon = system: KM12 colon
M19-MEL melanoma = system: M19-MEL melanoma
CCRF-CEM leukemia = system: CCRF-CEM leukemia
RXF 393 renal = system: RXF 393 renal
NCI-H460 lung = system: NCI-H460 lung
SNB-75 CNS = system: SNB-75 CNS
HCC-2998 colon = system: HCC-2998 colon
U251 CNS = system: U251 CNS
HOP-92 NSCLC = system: HOP-92 NSCLC
M14 melanoma = system: M14 melanoma
OVCAR-4 ovarian = system: OVCAR-4 ovarian
SR leukemia = system: SR leukemia
SF-268 CNS = system: SF-268 CNS
OVCAR-3 ovarian = system: OVCAR-3 ovarian
SK-MEL-5 melanoma = system: SK-MEL-5 melanoma
SW-620 colon = system: SW-620 colon
UACC-62 melanoma = system: UACC-62 melanoma
SNB-19 CNS = system: SNB-19 CNS
HT29 colon = system: HT29 colon
LOX IMVI melanoma = system: LOX IMVI melanoma
HCT-116 colon = system: HCT-116 colon
SF-295 CNS = system: SF-295 CNS
NCI-H522 lung = system: NCI-H522 lung
NCI-H226 lung = system: NCI-H226 lung
ACHN renal = system: ACHN renal
SNB-78 CNS = system: SNB-78 CNS
OVCAR-8 ovarian = system: OVCAR-8 ovarian
RPMI-8226 leukemia = system: RPMI-8226 leukemia
HCT-15 colon = system: HCT-15 colon
HOP-62 NSCLC = system: HOP-62 NSCLC
A549 NSCLC = system: A549 NSCLC
DMS 273 small cell lung = system: DMS 273 small cell lung
TK-10 renal = system: TK-10 renal
NCI-H23 lung = system: NCI-H23 lung
UO-31 renal = system: UO-31 renal
COLO 205 colon = system: COLO 205 colon

SMILES: CCCCCC(=O)N[C@H]1CCc2cc(O)c(O)c(O)c2-c2ccc(SC)c(=O)cc21
- TGI (SF-539 CNS): 45.3 µM
- TGI (MALME-3M melanoma): > 100 µM
- TGI (CAKI-1 renal): 91.6 µM
- TGI (UACC-257 melanoma): > 75.3 µM
- TGI (A498 renal): 64.1 µM
- TGI (EKVX NSCLC): > 100 µM
- TGI (MOLT-4 leukemia): 90.1 µM
- TGI (K-562 leukemia): > 49.9 µM
- TGI (SK-OV-3 ovarian): 66.2 µM
- TGI (DLD-1 colon): 40.6 µM
- TGI (IGROV1 ovarian): > 100 µM
- TGI (KM20L2 colon): 53.7 µM
- TGI (OVCAR-5 ovarian): > 100 µM
- TGI (SK-MEL-28 melanoma): > 100 µM
- TGI (SK-MEL-2 melanoma): 72.4 µM
- TGI (SN12C renal): 42.7 µM
- TGI (DMS 114 small cell lung): 24 µM
- TGI (LXFL 529 NSCLC): 48.7 µM
- TGI (786-0 renal): > 100 µM
- TGI (HL-60(TB) leukemia): 51.2 µM
- TGI (KM12 colon): > 100 µM
- TGI (M19-MEL melanoma): 53.1 µM
- TGI (CCRF-CEM leukemia): > 76.9 µM
- TGI (RXF 393 renal): > 100 µM
- TGI (NCI-H460 lung): > 100 µM
- TGI (SNB-75 CNS): 78.5 µM
- TGI (HCC-2998 colon): > 79 µM
- TGI (U251 CNS): > 73.8 µM
- TGI (HOP-92 NSCLC): 90.9 µM
- TGI (M14 melanoma): 36.7 µM
- TGI (OVCAR-4 ovarian): 44.7 µM
- TGI (SR leukemia): 68.8 µM
- TGI (SF-268 CNS): > 100 µM
- TGI (OVCAR-3 ovarian): 99.6 µM
- TGI (SK-MEL-5 melanoma): 75.5 µM
- TGI (SW-620 colon): 33.6 µM
- TGI (UACC-62 melanoma): 83.4 µM
- TGI (SNB-19 CNS): > 100 µM
- TGI (HT29 colon): > 87.1 µM
- TGI (LOX IMVI melanoma): 44.3 µM
- TGI (HCT-116 colon): 33 µM
- TGI (SF-295 CNS): 54.1 µM
- TGI (NCI-H522 lung): 54.5 µM
- TGI (NCI-H226 lung): 72.6 µM
- TGI (ACHN renal): > 100 µM
- TGI (SNB-78 CNS): > 100 µM
- TGI (OVCAR-8 ovarian): > 59.8 µM
- TGI (RPMI-8226 leukemia): > 100 µM
- TGI (HCT-15 colon): 42.9 µM
- TGI (HOP-62 NSCLC): > 100 µM
- TGI (A549 NSCLC): > 100 µM
- TGI (DMS 273 small cell lung): > 100 µM
- TGI (TK-10 renal): > 100 µM
- TGI (NCI-H23 lung): 55 µM
- TGI (UO-31 renal): > 100 µM
- TGI (COLO 205 colon): 44.5 µM

SMILES: CC1CCC(=O)NCCCCC(=O)N1 (stereo unspecified)
- TGI (SF-539 CNS): > 100 µM
- TGI (MALME-3M melanoma): > 100 µM
- TGI (CAKI-1 renal): > 100 µM
- TGI (UACC-257 melanoma): > 100 µM
- TGI (A498 renal): > 100 µM
- TGI (EKVX NSCLC): > 100 µM
- TGI (MOLT-4 leukemia): > 100 µM
- TGI (K-562 leukemia): > 100 µM
- TGI (SK-OV-3 ovarian): > 100 µM
- TGI (DLD-1 colon): > 100 µM
- TGI (IGROV1 ovarian): > 100 µM
- TGI (KM20L2 colon): > 100 µM
- TGI (OVCAR-5 ovarian): > 100 µM
- TGI (SK-MEL-28 melanoma): > 100 µM
- TGI (SK-MEL-2 melanoma): > 100 µM
- TGI (SN12C renal): > 100 µM
- TGI (DMS 114 small cell lung): > 100 µM
- TGI (LXFL 529 NSCLC): > 100 µM
- TGI (786-0 renal): > 100 µM
- TGI (HL-60(TB) leukemia): > 100 µM
- TGI (KM12 colon): > 100 µM
- TGI (M19-MEL melanoma): > 100 µM
- TGI (CCRF-CEM leukemia): > 100 µM
- TGI (RXF 393 renal): > 100 µM
- TGI (NCI-H460 lung): > 100 µM
- TGI (SNB-75 CNS): > 100 µM
- TGI (HCC-2998 colon): > 100 µM
- TGI (U251 CNS): > 100 µM
- TGI (HOP-92 NSCLC): > 100 µM
- TGI (M14 melanoma): > 100 µM
- TGI (OVCAR-4 ovarian): > 100 µM
- TGI (SR leukemia): > 100 µM
- TGI (SF-268 CNS): > 100 µM
- TGI (OVCAR-3 ovarian): > 100 µM
- TGI (SK-MEL-5 melanoma): > 100 µM
- TGI (SW-620 colon): > 100 µM
- TGI (UACC-62 melanoma): > 100 µM
- TGI (SNB-19 CNS): > 100 µM
- TGI (HT29 colon): > 100 µM
- TGI (LOX IMVI melanoma): > 100 µM
- TGI (HCT-116 colon): > 100 µM
- TGI (SF-295 CNS): > 100 µM
- TGI (NCI-H522 lung): > 100 µM
- TGI (NCI-H226 lung): > 100 µM
- TGI (ACHN renal): > 100 µM
- TGI (SNB-78 CNS): > 100 µM
- TGI (OVCAR-8 ovarian): > 100 µM
- TGI (RPMI-8226 leukemia): > 100 µM
- TGI (HOP-62 NSCLC): > 100 µM
- TGI (A549 NSCLC): > 100 µM
- TGI (DMS 273 small cell lung): > 100 µM
- TGI (TK-10 renal): > 100 µM
- TGI (NCI-H23 lung): > 100 µM
- TGI (UO-31 renal): > 100 µM
- TGI (COLO 205 colon): > 100 µM
